Laboratory results published in patent US20240174744A1, “METHODS OF TREATMENT USING PROTEIN BINDERS TO IRHOM2 EPITOPES” (SCIRHOM GMBH, priority 2021, published 2024).

Tested on: PMA-induced release of IL-6R from THP-1 cells
Experiment: ELISA-based IL-6R release assay, PMA-stimulated THP-1 cells
Type: cell-based
Conditions: Homo sapiens, recombinant murine antibodies 1 μg/ml, Batimastat 10 μM, PMA 25 ng/ml, 1 hour
Procedure: In the following study, ELISA-based IL-6R release assays were performed to analyze the inhibitory effects of the antibodies of the present disclosure on PMA-induced release of endogenous IL-6R from human THP-1 monocytic cells.
In brief, on day 1, Nunc black MaxiSorp® 96-well plates (Thermo Fisher Scientific, USA) were coated for 7 hours with 100 μl per well of mouse anti-human IL-6R capture antibody (provided as part of the DuoSet ELISA kit) at 2 μg/ml TBS at room temperature. Capture antibody solution was removed and MaxiSorp® plates were blocked with 300 μl per well of TBS, 1% BSA at room temperature for 1.5 hours. […] Using an infinite M1000 (Tecan Group, Switzerland) microplate reader, the fluorescence of each well was collected at an excitation wavelength of 435 nm and an emission wavelength of 555 nm.

CNC(=O)[C@H](Cc1ccccc1)NC(=O)[C@H](CC(C)C)[C@H](CSc1cccs1)C(=O)NO [Batimastat]
inhibition at 10 µM: 88.6%
